Assay results reported in patent publication US9926282B2, “Phthalazinones and isoquinolinones as rock inhibitors” (BRISTOL-MYERS SQUIBB COMPANY, priority 2013, dated 2018).

Key:
[1] = target: ROCK1 (Homo sapiens (Human), UniProt Q13464); test: ROCK assay (LABCHIP peptide phosphorylation), ROCK1; format: biochemical; settings: 5 μM ATP, 1.5 μM peptide substrate; read-out: ROCK1 IC50
[2] = target: ROCK2 (Homo sapiens (Human), UniProt O75116); test: ROCK assay (LABCHIP peptide phosphorylation), ROCK2; format: biochemical; settings: 5 μM ATP, 1.5 μM peptide substrate
Chain of ROCK2 (O75116 whole entry, species assumed): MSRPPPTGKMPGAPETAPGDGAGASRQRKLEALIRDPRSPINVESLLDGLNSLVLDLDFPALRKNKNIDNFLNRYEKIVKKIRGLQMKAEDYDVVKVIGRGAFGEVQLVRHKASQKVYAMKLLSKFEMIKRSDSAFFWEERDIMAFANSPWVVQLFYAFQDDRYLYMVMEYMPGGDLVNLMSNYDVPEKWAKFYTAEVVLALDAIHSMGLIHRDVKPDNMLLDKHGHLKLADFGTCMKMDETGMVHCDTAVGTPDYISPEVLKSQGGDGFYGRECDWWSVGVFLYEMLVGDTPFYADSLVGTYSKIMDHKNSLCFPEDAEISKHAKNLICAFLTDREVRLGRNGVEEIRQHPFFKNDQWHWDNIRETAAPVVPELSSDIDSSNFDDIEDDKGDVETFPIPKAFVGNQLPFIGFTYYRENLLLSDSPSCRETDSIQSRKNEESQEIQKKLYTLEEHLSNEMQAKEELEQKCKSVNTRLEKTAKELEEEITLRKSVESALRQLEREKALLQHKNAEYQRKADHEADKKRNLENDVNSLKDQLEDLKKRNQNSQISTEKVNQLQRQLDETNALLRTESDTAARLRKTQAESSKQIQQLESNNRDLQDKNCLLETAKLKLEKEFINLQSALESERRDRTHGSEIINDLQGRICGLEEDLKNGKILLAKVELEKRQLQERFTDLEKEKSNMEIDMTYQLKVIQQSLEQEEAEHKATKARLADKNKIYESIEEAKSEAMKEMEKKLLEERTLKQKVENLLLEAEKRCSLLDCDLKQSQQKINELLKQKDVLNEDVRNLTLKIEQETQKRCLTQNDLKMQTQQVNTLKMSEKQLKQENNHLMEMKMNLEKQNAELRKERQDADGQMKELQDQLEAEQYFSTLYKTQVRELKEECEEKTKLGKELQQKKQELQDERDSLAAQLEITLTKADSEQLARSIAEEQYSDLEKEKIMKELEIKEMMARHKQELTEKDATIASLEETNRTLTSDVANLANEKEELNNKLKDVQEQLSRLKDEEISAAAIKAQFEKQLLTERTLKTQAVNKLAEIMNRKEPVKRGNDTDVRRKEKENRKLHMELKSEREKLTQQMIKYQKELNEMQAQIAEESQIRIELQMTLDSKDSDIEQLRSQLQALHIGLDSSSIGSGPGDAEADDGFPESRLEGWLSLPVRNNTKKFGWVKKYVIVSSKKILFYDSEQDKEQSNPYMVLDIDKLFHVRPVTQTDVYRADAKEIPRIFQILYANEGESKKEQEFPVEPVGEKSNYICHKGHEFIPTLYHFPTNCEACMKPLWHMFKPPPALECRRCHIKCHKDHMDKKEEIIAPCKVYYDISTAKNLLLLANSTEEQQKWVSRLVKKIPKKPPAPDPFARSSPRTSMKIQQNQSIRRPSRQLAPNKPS

Chain of ROCK1 (Q13464 whole entry, species assumed): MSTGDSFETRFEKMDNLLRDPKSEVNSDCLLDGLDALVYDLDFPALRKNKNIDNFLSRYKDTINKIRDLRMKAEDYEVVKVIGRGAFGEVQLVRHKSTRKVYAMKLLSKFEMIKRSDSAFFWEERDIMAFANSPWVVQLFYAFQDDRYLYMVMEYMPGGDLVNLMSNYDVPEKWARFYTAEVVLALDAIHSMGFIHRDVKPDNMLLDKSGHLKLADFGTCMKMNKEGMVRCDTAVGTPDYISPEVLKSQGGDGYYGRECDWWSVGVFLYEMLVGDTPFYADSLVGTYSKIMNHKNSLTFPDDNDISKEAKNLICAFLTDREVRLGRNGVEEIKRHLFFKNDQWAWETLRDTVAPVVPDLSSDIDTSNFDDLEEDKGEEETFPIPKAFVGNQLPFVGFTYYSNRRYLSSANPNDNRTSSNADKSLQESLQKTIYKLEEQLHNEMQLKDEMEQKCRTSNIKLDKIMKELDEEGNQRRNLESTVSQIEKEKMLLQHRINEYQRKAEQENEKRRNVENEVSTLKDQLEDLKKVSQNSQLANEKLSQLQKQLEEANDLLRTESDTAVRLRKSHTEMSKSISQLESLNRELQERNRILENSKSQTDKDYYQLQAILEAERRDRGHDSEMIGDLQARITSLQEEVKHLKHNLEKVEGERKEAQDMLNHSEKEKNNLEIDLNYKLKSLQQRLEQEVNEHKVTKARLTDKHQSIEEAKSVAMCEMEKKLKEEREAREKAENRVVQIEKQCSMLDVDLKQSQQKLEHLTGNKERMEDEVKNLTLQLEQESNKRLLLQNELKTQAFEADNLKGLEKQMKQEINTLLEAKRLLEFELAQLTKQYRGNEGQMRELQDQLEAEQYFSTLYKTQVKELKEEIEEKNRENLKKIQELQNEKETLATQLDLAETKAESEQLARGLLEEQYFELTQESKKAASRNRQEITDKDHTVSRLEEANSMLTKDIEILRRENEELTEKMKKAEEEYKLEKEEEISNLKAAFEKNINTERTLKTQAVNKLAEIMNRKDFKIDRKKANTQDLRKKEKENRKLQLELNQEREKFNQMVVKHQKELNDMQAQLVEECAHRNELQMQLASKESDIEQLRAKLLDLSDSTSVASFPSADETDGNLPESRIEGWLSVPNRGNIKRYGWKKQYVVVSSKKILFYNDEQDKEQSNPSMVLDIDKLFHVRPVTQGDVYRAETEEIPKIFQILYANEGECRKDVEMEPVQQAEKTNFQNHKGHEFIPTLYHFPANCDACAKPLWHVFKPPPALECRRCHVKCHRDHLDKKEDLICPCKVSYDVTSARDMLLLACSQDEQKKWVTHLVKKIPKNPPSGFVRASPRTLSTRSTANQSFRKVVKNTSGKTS

| Structure (SMILES) | IC50 [1] | IC50 [2] |
| --- | --- | --- |
| O=C(Oc1ccc(-c2n[nH]c(=O)c3ccccc23)cc1)N1CCC(c2ccccc2)C1 (stereo not drawn) [Example 69, 4-(4-Oxo-3,4-dihydrophthalazin-1-yl)phenyl 3-phenylpyrrolidine-1-carboxylate] | 1000 to 50000 nM | 101 to 1000 nM |
| COc1cc(C)c2c(c1)CCN2C(=O)Cc1ccc(-c2n[nH]c(=O)c3ccccc23)cc1 [Example 252, 4-(4-(2-(5-Methoxy-7-methylindolin-1-yl)-2-oxoethyl)phenyl)phthalazin-1(2H)-one] | 1000 to 50000 nM | 101 to 1000 nM |
| CC1(Cn2nc(C(=O)Nc3ccc(-c4n[nH]c(=O)c5ccccc45)cc3)c3ccccc32)COC1 [Example 145, 1-[(3-methyloxetan-3-yl)methyl]-N-[4-(4-oxo-3,4-dihydrophthalazin-1-yl)phenyl]-1H-indazole-3-carboxamide] | 0.1 to 100 nM | 0.1 to 100 nM |
| CCOc1cc(NC(=O)c2nn(CC3CCOC3)c3ccccc23)ccc1-c1n[nH]c(=O)c2ccccc12 (stereo not drawn) [Example 347, N-(3-Ethoxy-4-(4-oxo-3,4-dihydrophthalazin-1-yl)phenyl)-1-((tetrahydrofuran-3-yl)methyl)-1H-indazole-3-carboxamide] | 1000 to 50000 nM | 101 to 1000 nM |
| COC(=O)COc1ccc2c(c1)N(C(=O)Cc1ccc(-c3n[nH]c(=O)c4ccccc34)cc1)CC2 [Example 283, methyl 2-[(1-{2-[4-(4-oxo-3,4-dihydrophthalazin-1-yl)phenyl]acetyl}-2,3-dihydro-1H-indol-6-yl)oxy]acetate] | 0.1 to 100 nM | 0.1 to 100 nM |
| COc1ccc2c(=O)[nH]cc(-c3ccc(NC(=O)N4CCc5ccccc54)cc3C)c2c1 [Example 323, N-(4-(6-Methoxy-1-oxo-1,2-dihydroisoquinolin-4-yl)-3-methylphenyl)indoline-1-carboxamide] | 0.1 to 100 nM | 0.1 to 100 nM |
| O=C(Nc1ccc(-c2n[nH]c(=O)c3ccccc23)cc1)N1CCc2ccccc21 [Example 76, N-(4-(4-Oxo-3,4-dihydrophthalazin-1-yl)phenyl)indoline-1-carboxamide] | 0.1 to 100 nM | 0.1 to 100 nM |
| Cc1cc(NC(=O)c2cc(C(C)(C)C)n(C)n2)ccc1-c1n[nH]c(=O)c2ccccc12 [Example 395, 5-(tert-Butyl)-1-methyl-N-(3-methyl-4-(4-oxo-3,4-dihydrophthalazin-1-yl)phenyl)-1H-pyrazole-3-carboxamide] | 0.1 to 100 nM | 0.1 to 100 nM |
| CN(C)CCOc1ccc2c(c1)N(C(=O)Cc1ccc(-c3n[nH]c(=O)c4ccccc34)cc1)CC2 [Example 279, 4-[4-(2-{6-[2-(dimethylamino)ethoxy]-2,3-dihydro-1H-indol-1-yl}-2-oxoethyl)phenyl]-1,2-dihydrophthalazin-1-one] | 101 to 1000 nM | 0.1 to 100 nM |
| CC(C)n1nc(C(=O)Nc2ccc(-c3n[nH]c(=O)c4ccccc34)c(CO)c2)c2ccccc21 [Example 364, N-(3-(Hydroxymethyl)-4-(4-oxo-3,4-dihydrophthalazin-1-yl)phenyl)-1-isopropyl-1H-indazole-3-carboxamide] | 101 to 1000 nM | 0.1 to 100 nM |
| COC(=O)N1CCC(Cn2nc(C(=O)Nc3ccc(-c4n[nH]c(=O)c5ccccc45)cc3)c3ccccc32)CC1 [Example 344, Methyl 4-((3-((4-(4-oxo-3,4-dihydrophthalazin-1-yl)phenyl)carbamoyl)-1H-indazol-1-yl)methyl)piperidine-1-carboxylate] | 0.1 to 100 nM | 0.1 to 100 nM |
| CC(O)COc1ccn2ncc(C(=O)Nc3ccc(-c4n[nH]c(=O)c5ccccc45)cc3)c2c1 (stereo not drawn) [Example 185, 5-(2-hydroxypropoxy)-N-[4-(4-oxo-3,4-dihydrophthalazin-1-yl)phenyl]pyrazolo[1 5-a]pyridine-3-carboxamide] | 0.1 to 100 nM | 0.1 to 100 nM |
| O=C(Cc1ccc(-c2n[nH]c(=O)c3ccccc23)cc1)N1CCc2ccc(OCCN3CCCC3)cc21 [Example 286, 4-[4-(2-oxo-2-{6-[2-(pyrrolidin-1-yl)ethoxy]-2,3-dihydro-1H-indol-1-yl}ethyl)phenyl]-1,2-dihydrophthalazin-1-one] | 101 to 1000 nM | 0.1 to 100 nM |

Other lines, results leading:

| IC50 [1] | IC50 [2] | Structure (SMILES) |
| --- | --- | --- |
| 101 to 1000 nM | 0.1 to 100 nM | O=C(Nc1ccc(-c2n[nH]c(=O)c3ccccc23)cc1)c1cnn(C2CCOC2)c1 (stereo not drawn) [Example 390, N-(4-(4-Oxo-3,4-dihydrophthalazin-1-yl)phenyl)-1-(tetrahydrofuran-3-yl)-1H-pyrazole-4-carboxamide] |
| 0.1 to 100 nM | 0.1 to 100 nM | O=C(Nc1ccc(-c2n[nH]c(=O)c3ccccc23)cc1)c1nc2ccccc2s1 [Example 115, N-[4-(4-oxo-3,4-dihydrophthalazin-1-yl)phenyl]-1,3-benzothiazole-2-carboxamide] |
| 101 to 1000 nM | 0.1 to 100 nM | Cn1ncc(C(=O)Nc2ccc(-c3n[nH]c(=O)c4ccccc34)cc2)c1-c1ccccc1 [Example 192, 1-methyl-N-[4-(4-oxo-3,4-dihydrophthalazin-1-yl)phenyl]-5-phenyl-1H-pyrazole-4-carboxamide] |
| 0.1 to 100 nM | 0.1 to 100 nM | O=C(Nc1ccc(-c2n[nH]c(=O)c3ccccc23)cc1)c1ccn(-c2ccccc2)n1 [Example 226, N-[4-(4-oxo-3,4-dihydrophthalazin-1-yl)phenyl]-1-phenyl-1H-pyrazole-3-carboxamide] |
| 0.1 to 100 nM | 0.1 to 100 nM | CC(C)(C)n1cc(C(=O)Nc2ccc(-c3n[nH]c(=O)c4ccccc34)cc2)cn1 [Example 381, 1-(tert-Butyl)-N-(4-(4-oxo-3,4-dihydrophthalazin-1-yl)phenyl)-1H-pyrazole-4-carboxamide] |
| 0.1 to 100 nM | 0.1 to 100 nM | Cc1ccn2c(C(=O)Nc3ccc(-c4n[nH]c(=O)c5ccccc45)cc3)c(C)nc2c1 [Example 139, 2,7-dimethyl-N-[4-(4-oxo-3,4-dihydrophthalazin-1-yl)phenyl]imidazo[1,2-a]pyridine-3-carboxamide] |
| 101 to 1000 nM | 0.1 to 100 nM | O=C(Nc1ccc(-c2n[nH]c(=O)c3ccccc23)cc1)c1cn2c(n1)CCCC2 [Example 134, N-[4-(4-oxo-3,4-dihydrophthalazin-1-yl)phenyl]-5H,6H,7H,8H-imidazo[1,2-a]pyridine-2-carboxamide] |
| 1000 to 50000 nM | 1000 to 50000 nM | COC[C@@H]1CCCN1C(=O)Cc1ccc(-c2n[nH]c(=O)c3ccccc23)cc1 [Example 13, 4-(4-{2-[(2S)-2-(methoxymethyl)pyrrolidin-1-yl]-2-oxoethyl}phenyl)-1,2-dihydrophthalazin-1-one] |
| 0.1 to 100 nM | 0.1 to 100 nM | Cc1cc(C(=O)Nc2ccc(-c3n[nH]c(=O)c4ccccc34)cc2)nn1Cc1ccccc1 [Example 208, 1-benzyl-5-methyl-N-[4-(4-oxo-3,4-dihydrophthalazin-1-yl)phenyl]-1H-pyrazole-3-carboxamide] |
| 0.1 to 100 nM | 0.1 to 100 nM | O=C(Nc1ccc(-c2n[nH]c(=O)c3ccccc23)cc1)c1cnn(-c2ccccc2)c1Cl [Example 199, 5-chloro-N-[4-(4-oxo-3,4-dihydrophthalazin-1-yl)phenyl]-1-phenyl-1H-pyrazole-4-carboxamide] |
| 0.1 to 100 nM | 0.1 to 100 nM | CC(C)(O)COc1ccc2c(C(=O)Nc3ccc(-c4n[nH]c(=O)c5ccccc45)cc3)cnn2c1 [Example 172, 6-(2-hydroxy-2-methylpropoxy)-N-[4-(4-oxo-3,4-dihydrophthalazin-1-yl)phenyl]pyrazolo[1,5-a]pyridine-3-carboxamide] |
